Test results as given in patent US11725012B2, “Imidazo[1,5-a]pyrazine derivatives as PI3K δ inhibitors” (priority 2016, dated 2023).

How the values were obtained:
[1] = Pharmacokinetic properties in Sprague-Dawley rats after IV and PO administration; assay type: in vivo; details: male, plasma, rat; for Vd: read-out: VdSS
Method: III. Pharmacokinetic Properties of Compounds in Sprague-Dawley Rats after Intravenous (IV) and Oral Administrations (PO)
Dose Formulation Preparation The injection dosing solution was prepared as follows: 1.0 mg of a test compound was weighted and dissolved in 0.32 mL of dimenthyl acetamide (DMA). The solution was then further diluted by 0.36 mL of ethanol and 0.32 mL of propylene glycol. The final concentration of the test compound was 1.0 mg·mL^−1.
The oral dosing solution was prepared as follows: 5.0 mg of a test compound was weighed and dispersed in […] of 0.5% methyl cellulose (MC). The final concentration of the test compound is 1 mg·mL^−1.
The animals were housed in solid bottom polypropylene cages with sterilized bedding and receive sterilized diet and sterilized water. The room was controlled and monitored for humidity (targeted mean range 40% to 70%) and temperature (targeted mean range 18° C. to 26° C.) with 10 to 20 air changes/hour. The light cycle was maintained at 12-h light and 12-h dark, Only animals that appeared to be healthy were selected for this study based on overall health, body weight, or other relevant information.
The male Sprague-Dawley rats were fasted overnight with free access to drinking water prior to treatment. On day 1, the animals were weighed and actual dose volume for each animal was calculated using the formula below: Dose Volume (mL)=[Nominal Dose (mg·kg^−1)/Dose Concentration (mg·mL^−1)]×Animal Body Weight (kg) (1)
Three rats were given a single IV dose of 1 mg·kg^−1 via tail vein injection and other three rats were given a single oral dose of 5 mg·kg^−1. The dosing solutions were freshly prepared prior to dose administration. The actual body weights and actual volume injected were recorded accordingly. Four hours after dosing, the rats were allowed to intake food.
Blood samples ([…]) were collected at different times from the jugular vein catheter into EDTA-K2 coated tubes, Whole blood was processed by centrifugation at 3000 g for 10 min. Plasma samples were collected and kept at −80° C. freezer prior to analysis. The blood sampling time was recorded accordingly.
The dose samples of IV and PO were diluted with MeOH:H2O (4:1, v/v) to achieve the concentration of 2 μg·mL^−1, respectively. Then, 2.5 μL of the diluted samples were added with 47.5 μL blank plasma, and then were handled as the plasma sample procedure. An aliquot of 10 μL of the mixture was injected into the LC-MS/MS system.

PI3K (p110γ) = PI3K (p110γ) (Homo sapiens, UniProt P48736); test: PI3Kγ ADP-Glo kinase assay; assay type: biochemical; details: PI3Kγ Enzyme activity IC50
[2] = biological target: recombinant PI3K (p110δ/p85α) (Homo sapiens, UniProt O00329); test: PI3Kδ ADP-Glo kinase assay; assay type: biochemical; details: PI3Kδ Enzyme activity IC50
How it was run: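 ADP-Glo luminescence with recombinant p110δ/p85α and lipid kinase substrate. Compound serial dilutions preincubated 0.5 hr, ATP added, reaction 1 hr at room temperature, then ATP depletion and detection steps. IC50 from a four-parameter logistic fit of residual activity.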

[3] = biological target: recombinant PI3K (p110α/p85α) (Homo sapiens, UniProt P42336); test: PI3Kα ADP-Glo kinase assay; assay type: biochemical; details: PI3Kα Enzyme activity IC50
[4] = Brain penetration in male C57BL/6 mice after oral administration; assay type: in vivo; details: mouse; for Kp: male, C57BL/6, brain and plasma, PO 10 mg·kg^−1, read-out: BBB (Brain/Plasma Cone. Ratio)
Method: IV. Brain Penetration of Compounds in Male C57BL/6 Mice after Oral Administration Dose Formulation Preparation
Approximately 4 mg of a test compound was weighed and dispersed in 0.5% methyl cellulose (MC). After that, the whole mixture were vortexed until a solution or suspension was formed. The final concentration of the test compound was 1 mg·mL^−1. The concentration of test compound in dosing formulations was determined within 85% to 115% of nominal values.
The mice were housed in solid bottom polypropylene cages with sterilized bedding. The room was controlled and monitored for humidity (targeted mean range 40% to 70%) and temperature (targeted mean range 20° to 25° C.) with 10 to 20 air changes/hour. The room was on a 12-hour light/dark cycle except when interruptions were necessitated by study activities. The mice were supplied with sterilized diet and water. All animals were examined upon receipt and were acclimated for at least 3 days. Only animals that appeared to be healthy were selected for the study based on overall health, body weight, or other relevant data as appropriate.
All procedures performed on animals were in accordance with established guidelines and reviewed and approved by an independent institutional review board.
The mice were administrated with test compound at 10 mg·kg^−1 via oral gavage, respectively. The dosing formulations were freshly prepared. The actual body weights and actual volume administered were recorded accordingly.
Three mice were sacrificed under carbon dioxide for sample collection at 1, 2 and 4 hours post dose, respectively. Blood samples (˜0.2 mL) were collected via cardiac puncture into anticoagulant tubes (coated with EDTA-Ka). The tubes were gently inverted several times to ensure mixing. Whole blood was processed for plasma by centrifugation at 5,500 rpm for 10 min. The brain was collected immediately after euthanasia. The sample collection time was recorded accordingly. After the removal of excess water, the brain was weighed and homogenized with 5× water (w/v) in an ice bath. […]

PI3K (p110β/p85α) = PI3K (p110β/p85α) (Homo sapiens, UniProt P42338); test: PI3Kβ ADP-Glo kinase assay; assay type: biochemical; details: PI3Kβ Enzyme activity IC50
Sequence of PI3K (p110β/p85α) (P42338 whole entry): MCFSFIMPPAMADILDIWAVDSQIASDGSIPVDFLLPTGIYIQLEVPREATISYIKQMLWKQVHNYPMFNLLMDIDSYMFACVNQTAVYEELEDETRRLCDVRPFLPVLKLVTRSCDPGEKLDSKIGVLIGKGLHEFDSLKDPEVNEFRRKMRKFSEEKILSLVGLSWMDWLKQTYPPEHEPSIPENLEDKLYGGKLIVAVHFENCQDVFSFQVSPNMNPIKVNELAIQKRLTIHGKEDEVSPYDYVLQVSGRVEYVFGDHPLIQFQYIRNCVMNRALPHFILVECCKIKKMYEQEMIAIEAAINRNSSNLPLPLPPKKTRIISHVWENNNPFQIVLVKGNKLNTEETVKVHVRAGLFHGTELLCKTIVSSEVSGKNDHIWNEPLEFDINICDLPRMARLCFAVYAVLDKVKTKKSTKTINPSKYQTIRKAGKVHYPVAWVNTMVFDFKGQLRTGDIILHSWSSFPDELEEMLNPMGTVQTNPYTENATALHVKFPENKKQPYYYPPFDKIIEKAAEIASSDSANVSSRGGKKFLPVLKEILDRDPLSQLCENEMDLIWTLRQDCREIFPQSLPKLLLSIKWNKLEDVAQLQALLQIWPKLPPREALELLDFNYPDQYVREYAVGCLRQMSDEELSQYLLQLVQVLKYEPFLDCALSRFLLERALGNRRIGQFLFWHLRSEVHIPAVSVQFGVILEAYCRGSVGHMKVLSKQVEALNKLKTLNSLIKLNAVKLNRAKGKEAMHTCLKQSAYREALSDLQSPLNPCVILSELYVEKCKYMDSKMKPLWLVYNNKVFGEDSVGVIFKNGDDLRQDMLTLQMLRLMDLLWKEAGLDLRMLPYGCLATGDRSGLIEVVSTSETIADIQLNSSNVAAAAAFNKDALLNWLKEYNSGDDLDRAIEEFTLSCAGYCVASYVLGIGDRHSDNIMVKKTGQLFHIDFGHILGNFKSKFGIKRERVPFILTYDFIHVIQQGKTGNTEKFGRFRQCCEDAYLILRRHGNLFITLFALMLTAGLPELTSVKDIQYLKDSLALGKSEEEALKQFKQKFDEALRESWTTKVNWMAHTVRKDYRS
Sequence of PI3K (p110β/p85α) (P27986 whole entry partner): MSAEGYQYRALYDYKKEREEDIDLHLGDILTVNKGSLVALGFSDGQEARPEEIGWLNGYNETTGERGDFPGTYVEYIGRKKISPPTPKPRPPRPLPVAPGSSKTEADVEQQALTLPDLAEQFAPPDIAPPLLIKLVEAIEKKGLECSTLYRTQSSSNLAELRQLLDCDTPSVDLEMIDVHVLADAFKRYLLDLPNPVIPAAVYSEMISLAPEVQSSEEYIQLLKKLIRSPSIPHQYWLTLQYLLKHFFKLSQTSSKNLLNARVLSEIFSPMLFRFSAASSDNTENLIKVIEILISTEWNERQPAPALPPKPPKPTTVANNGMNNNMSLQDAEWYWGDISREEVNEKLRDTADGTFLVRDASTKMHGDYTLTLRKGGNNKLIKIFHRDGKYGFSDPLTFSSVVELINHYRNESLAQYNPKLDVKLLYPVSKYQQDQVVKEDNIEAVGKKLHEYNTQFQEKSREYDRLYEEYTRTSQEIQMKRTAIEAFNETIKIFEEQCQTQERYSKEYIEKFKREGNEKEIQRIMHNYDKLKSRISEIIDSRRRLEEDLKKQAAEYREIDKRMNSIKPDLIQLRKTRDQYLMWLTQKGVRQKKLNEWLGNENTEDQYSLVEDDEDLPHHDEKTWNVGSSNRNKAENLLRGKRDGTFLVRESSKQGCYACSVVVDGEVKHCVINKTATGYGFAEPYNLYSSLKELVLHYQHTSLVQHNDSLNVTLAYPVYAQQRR

Sequence of PI3K (p110γ) (P48736 whole entry): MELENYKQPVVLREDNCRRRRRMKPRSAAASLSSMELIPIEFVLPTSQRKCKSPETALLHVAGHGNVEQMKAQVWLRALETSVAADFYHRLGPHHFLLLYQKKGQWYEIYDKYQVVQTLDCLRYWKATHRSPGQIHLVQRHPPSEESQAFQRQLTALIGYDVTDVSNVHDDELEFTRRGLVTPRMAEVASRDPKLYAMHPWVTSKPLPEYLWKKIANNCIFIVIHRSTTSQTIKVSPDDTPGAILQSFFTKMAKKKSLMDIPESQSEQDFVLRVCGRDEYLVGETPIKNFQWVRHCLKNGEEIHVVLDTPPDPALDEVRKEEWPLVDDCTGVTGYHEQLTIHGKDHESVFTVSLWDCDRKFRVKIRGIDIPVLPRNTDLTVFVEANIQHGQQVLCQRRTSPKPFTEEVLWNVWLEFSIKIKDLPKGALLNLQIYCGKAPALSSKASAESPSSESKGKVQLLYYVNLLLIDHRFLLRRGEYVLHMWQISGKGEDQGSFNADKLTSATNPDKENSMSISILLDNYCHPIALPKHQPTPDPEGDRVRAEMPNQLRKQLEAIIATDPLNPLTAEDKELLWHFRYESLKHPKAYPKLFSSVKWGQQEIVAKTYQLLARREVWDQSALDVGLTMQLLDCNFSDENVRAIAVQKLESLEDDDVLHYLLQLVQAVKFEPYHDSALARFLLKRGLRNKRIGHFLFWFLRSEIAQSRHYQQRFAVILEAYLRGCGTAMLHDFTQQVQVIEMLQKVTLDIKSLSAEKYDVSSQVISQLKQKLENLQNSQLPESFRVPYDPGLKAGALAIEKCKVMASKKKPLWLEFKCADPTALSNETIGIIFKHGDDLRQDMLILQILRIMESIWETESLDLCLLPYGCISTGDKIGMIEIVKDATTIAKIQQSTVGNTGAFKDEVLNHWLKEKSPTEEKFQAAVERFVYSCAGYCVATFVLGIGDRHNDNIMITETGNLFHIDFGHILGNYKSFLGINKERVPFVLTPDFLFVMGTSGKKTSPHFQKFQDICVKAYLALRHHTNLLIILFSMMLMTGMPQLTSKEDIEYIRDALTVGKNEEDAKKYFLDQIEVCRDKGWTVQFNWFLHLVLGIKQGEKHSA
Sequence of recombinant PI3K (p110δ/p85α) (O00329 whole entry): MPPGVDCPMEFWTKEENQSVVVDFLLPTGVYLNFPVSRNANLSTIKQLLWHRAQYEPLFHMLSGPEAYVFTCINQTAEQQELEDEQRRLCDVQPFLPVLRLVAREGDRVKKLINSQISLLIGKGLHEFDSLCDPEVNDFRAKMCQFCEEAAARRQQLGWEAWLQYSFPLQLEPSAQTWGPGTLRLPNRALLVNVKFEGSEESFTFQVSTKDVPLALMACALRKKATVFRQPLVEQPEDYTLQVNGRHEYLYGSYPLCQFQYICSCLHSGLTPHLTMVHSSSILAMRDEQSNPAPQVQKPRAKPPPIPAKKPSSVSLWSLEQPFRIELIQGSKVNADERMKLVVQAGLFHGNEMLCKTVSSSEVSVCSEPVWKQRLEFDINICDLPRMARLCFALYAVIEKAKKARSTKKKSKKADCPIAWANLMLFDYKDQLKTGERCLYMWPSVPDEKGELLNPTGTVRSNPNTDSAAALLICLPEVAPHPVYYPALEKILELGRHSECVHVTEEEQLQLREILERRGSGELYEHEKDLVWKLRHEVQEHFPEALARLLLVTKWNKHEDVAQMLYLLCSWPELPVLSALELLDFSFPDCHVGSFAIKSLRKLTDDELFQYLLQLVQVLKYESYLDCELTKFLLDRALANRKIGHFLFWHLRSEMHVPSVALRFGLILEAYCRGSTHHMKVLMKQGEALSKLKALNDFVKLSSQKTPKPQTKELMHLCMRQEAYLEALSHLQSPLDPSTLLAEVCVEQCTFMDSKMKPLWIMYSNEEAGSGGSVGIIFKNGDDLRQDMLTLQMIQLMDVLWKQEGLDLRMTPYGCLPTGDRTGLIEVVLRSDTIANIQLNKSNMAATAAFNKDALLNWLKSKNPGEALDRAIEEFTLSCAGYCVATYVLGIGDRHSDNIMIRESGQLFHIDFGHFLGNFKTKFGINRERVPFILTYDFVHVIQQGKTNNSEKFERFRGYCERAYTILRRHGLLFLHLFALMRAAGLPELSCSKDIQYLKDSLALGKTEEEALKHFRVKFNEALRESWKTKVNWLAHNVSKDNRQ
Sequence of recombinant PI3K (p110δ/p85α) (P27986 whole entry partner): as the sequence (P27986 whole entry partner) above
Sequence of recombinant PI3K (p110α/p85α) (P42336 whole entry): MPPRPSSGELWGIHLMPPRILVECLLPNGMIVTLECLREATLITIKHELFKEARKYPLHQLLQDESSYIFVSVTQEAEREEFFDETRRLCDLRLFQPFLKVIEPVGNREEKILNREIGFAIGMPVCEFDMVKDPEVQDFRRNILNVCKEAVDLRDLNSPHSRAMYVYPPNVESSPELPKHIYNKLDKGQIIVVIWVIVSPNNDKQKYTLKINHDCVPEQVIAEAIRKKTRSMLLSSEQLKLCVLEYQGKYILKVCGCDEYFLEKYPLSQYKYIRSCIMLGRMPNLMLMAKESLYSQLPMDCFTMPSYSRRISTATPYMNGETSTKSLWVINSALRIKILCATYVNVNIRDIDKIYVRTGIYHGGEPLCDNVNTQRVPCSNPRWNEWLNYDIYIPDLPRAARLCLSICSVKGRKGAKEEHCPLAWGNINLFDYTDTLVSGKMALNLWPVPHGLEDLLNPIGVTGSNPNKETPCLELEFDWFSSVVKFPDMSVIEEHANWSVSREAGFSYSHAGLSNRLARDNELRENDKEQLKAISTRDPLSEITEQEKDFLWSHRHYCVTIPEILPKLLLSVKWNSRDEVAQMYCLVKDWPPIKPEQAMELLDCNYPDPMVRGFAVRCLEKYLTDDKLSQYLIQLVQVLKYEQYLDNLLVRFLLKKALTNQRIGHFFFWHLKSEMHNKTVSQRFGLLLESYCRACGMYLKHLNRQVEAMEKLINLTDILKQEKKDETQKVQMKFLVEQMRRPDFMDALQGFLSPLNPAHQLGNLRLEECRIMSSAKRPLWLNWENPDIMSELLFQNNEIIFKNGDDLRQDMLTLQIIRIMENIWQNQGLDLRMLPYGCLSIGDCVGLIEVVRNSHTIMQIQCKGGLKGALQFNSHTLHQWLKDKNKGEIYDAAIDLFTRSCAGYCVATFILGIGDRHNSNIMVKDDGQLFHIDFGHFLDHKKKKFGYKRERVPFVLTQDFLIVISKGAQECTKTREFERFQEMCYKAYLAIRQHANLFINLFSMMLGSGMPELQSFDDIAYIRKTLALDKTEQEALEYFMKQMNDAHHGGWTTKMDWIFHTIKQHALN
Sequence of recombinant PI3K (p110α/p85α) (P27986 whole entry partner): as the sequence (P27986 whole entry partner) above

Compound	AUC(0-inf) ([1]; 1 mg/kg, IV (1 mpk)) [ng·h/mL]	clearance ([1]; 1 mg/kg, IV (1 mpk)) [mL/min/kg]	half-life ([1]; 1 mg/kg, IV (1 mpk)) [h]	Vd ([1]; 1 mg/kg, IV (1 mpk)) [L/kg]	AUC(0-inf) ([1]; 5 mg/kg, PO (5 mpk)) [ng·h/mL]	Cmax ([1]; 5 mg/kg, PO (5 mpk)) [ng/mL]	Tmax ([1]; 5 mg/kg, PO (5 mpk)) [h]	bioavailability ([1]; 5 mg/kg, PO (5 mpk)) [%]	half-life ([1]; 5 mg/kg, PO (5 mpk)) [h]	IC50 (PI3K (p110γ)) [µM]	IC50 [2] [µM]	IC50 [3] [µM]	Kp [4]	IC50 (PI3K (p110β/p85α)) [µM]	Brain/Plasma Conc. Ratio (in words) ([4]; PO)
CC(C)Oc1c([C@H](C)c2nc(Cl)c3c(N)nccn23)cc(Cl)c(F)c1-c1ccc(C(=O)N(C)C)nc1 [Compound 16A]	1060	16	1.3	1.8	2190	496	1	41.1	1.9	0.44	0.00071	0.79	0.05	0.87	–
CC(C)Oc1c([C@H](C)c2nc(Cl)c3c(N)nccn23)cc(Cl)c(F)c1-c1ccc(C(F)(F)F)nc1 [Compound 40A]	768	22.2	9	14.8	1720	179	2.7	51	6.6	3.8	0.001	33	0.29	6.8	much better Brain/Plasma Conc, Ratio
